The source of these data is patent US7001897B2, “1-methylcarbapenem derivatives” (Sankyo Company, Limited, priority 2000, dated 2006).

≈ marks a conversion by molar mass, not a printed value. Counter-ions that a name gives are not always drawn. Like-named read-outs stand apart in the source and are kept apart here.

The test system of one series is Streptococcus pneumoniae. Nature of the series: In vitro antibacterial activity, agar plate dilution method. Particulars: read-out: Minimum Concentration to Inhibit Growth of the Employed Bacteria B. The series is classed as cell-based. How it is done:
(§1) To assess the antibacterial activities of the compounds, the minimum concentrations (μg/ml) of the compounds to inhibit growth of various pathogenic bacteria were determined by agar plate dilution method. In this Table, the employed bacteria A, B, and C were as follow: • A: Staphylococcus aureus • B: Streptococcus pneumoniae • C: Haemophilis influenzae strain 9787 (a strain producing β-lactamase)

The subject of series [1] is Haemophilis influenzae strain 9787 (a strain producing β-lactamase). Described as above. The series is classed as cell-based. Particulars: read-out: Minimum Concentration to Inhibit Growth of the Employed Bacteria C. On the procedure: as §1
In a further series the test system is Staphylococcus aureus. Described as above. The format is cell-based. Particulars: read-out: Minimum Concentration to Inhibit Growth of the Employed Bacteria A. How it is done: as §1
Series [2] in a line: Pharmacokinetics, plasma concentration by bioassay after subcutaneous injection. The format is in vivo. Particulars: mouse, sc, mice (ddY, male), 20 mg/kg subcutaneous; for AUC: read-out: AUCall (area under the concentration-time curve in plasma); for Cmax: read-out: Cmax (maximal plasma concentration); for half-life: read-out: T1/2 (half-life in plasma concentration) (converted). How it is done: The compounds of the present invention compound (20 mg/kg) was subcutaneously injected to mice (n=3, ddY, male, purchased from SLC Japan). The plasma concentration of the compound was determined by a bioassay method at 5, 15, and 30 min, and 1, 1.5, and 2 hr after administration. In the Table, Cmax, T1/2, and AUCall indicate the maximal plasma concentration, half-life in plasma concentration, and area under the concentration-time curve in plasma of the compound, respectively.

Where [3] appears, read: B: Streptococcus pneumoniae, agar plate dilution.
Where [4] appears, read: C: Haemophilis influenzae strain 9787 (β-lactamase producing), agar plate dilution.
Setting [5] is: A: Staphylococcus aureus, agar plate dilution.

With `C[C@@H](O)[C@H]1C(=O)N2C(C(=O)[O-])=C(SC3CN(c4nc(C(N)=O)cs4)C3)[C@H](C)[C@H]12.[Na+]` [Example 3, (1R,5S,6S)-2-[1-(4-Carbamoyl-1,3-thiazol-2-yl)azetidin-3-yl]thio-6-[(R)-1-hydroxyethyl]-1-methylcarbapen-2-em-3-carboxylic acid sodium salt], the values for the MIC (in the series with Streptococcus pneumoniae (setting [3]); in series [1] (setting [4]); in the series on Staphylococcus aureus (setting [5])) were 0.2 µg/mL, 0.1 µg/mL and 0.05 µg/mL, respectively. Moreover, the AUC in series [2] is 83900 ng·h/mL. The Cmax in series [2] stood at 127 µg/mL. Further, in series [2], the half-life was 15 min.

Take `C[C@@H](O)[C@H]1C(=O)N2C(C(=O)[O-])=C(SC3CN(c4nc(C#N)cs4)C3)[C@H](C)[C@H]12.[Na+]` [Example 4, (1R,5S,6S)-2-[1-(4-Cyano-1,3-thiazol-2-yl)azetidin-3-yl]thio-6-[(R)-1-hydroxyethyl]-1-methylcarbapen-2-em-3-carboxylic acid sodium salt]: in the series on Streptococcus pneumoniae (Streptococcus pneumoniae), the MIC is 0.2 µg/mL. Further, the MIC in series [1] amounted to 0.2 µg/mL. Also, the MIC with Staphylococcus aureus (Staphylococcus aureus) turned out to be 0.05 µg/mL. Besides, in series [2] (in vivo), the AUC was found to be 165000 ng·h/mL, the Cmax was determined as 157 µg/mL and the half-life is 61.2 min.

Regarding `CNC(=O)c1csc(N2CC(SC3=C(C(=O)[O-])N4C(=O)[C@H]([C@@H](C)O)[C@H]4[C@H]3C)C2)n1.[Na+]` [Example 5, (1R,5S,6S)-2-[1-(4-N-Methylcarbamoyl-1,3-thiazol-2-yl)azetidin-3-yl]thio-6-[(R)-1-hydroxyethyl]-1-methylcarbapen-2-em-3-carboxylic acid sodium salt], the MIC turned out to be 0.2 µg/mL in the series on Streptococcus pneumoniae (setting [3]), 0.2 µg/mL in series [1] (setting [4]) and 0.05 µg/mL in the series with Staphylococcus aureus (setting [5]).

`C[C@@H](O)[C@H]1C(=O)N2C(C(=O)[O-])=C(SC3CN(c4nc(C(=O)N(C)C)cs4)C3)[C@H](C)[C@H]12.[Na+]` [Example 6, (1R,5S,6S)-2-[1-(4-N,N-Dimethylcarbamoyl-1,3-thiazol-2-yl)azetidin-3-yl]thio-6-[(R)-1-hydroxyethyl]-1-methylcarbapen-2-em-3-carboxylic acid sodium salt]: the results for the MIC (in the series on Streptococcus pneumoniae (setting [3]); in series [1] (setting [4]); in the series on Staphylococcus aureus (setting [5])) were 0.2 µg/mL, 0.2 µg/mL and 0.05 µg/mL, respectively.

For the compound `C[C@@H](O)[C@H]1C(=O)N2C(C(=O)[O-])=C(SC3CN(c4nc(C(=O)N5CCOCC5)cs4)C3)[C@H](C)[C@H]12.[Na+]` [Example 11, (1R,5S,6S)-2-[1-(4-Morpholinocarbonyl-1,3-thiazol-2-yl)azetidin-3-yl]thio-6-[(R)-1-hydroxyethyl]-1-methylcarbapen-2-em-3-carboxylic acid sodium salt], in series [2], the AUC came out at 40400 ng·h/mL, the Cmax is 56.6 µg/mL and the half-life was 19.8 min.

On to `C[C@@H](O)[C@H]1C(=O)N2C(C(=O)[O-])=C(S[C@@H]3CCN(c4nc(C(N)=O)cs4)C3)[C@H](C)[C@H]12.[Na+]` [Example 19, (1R,5S,6S)-2-[(3R)-1-(4-Carbamoyl-1,3-thiazol-2-yl)pyrrolidin-3-yl]thio-6-[(R)-1-hydroxyethyl]-1-methylcarbapen-2-em-3-carboxylic acid sodium salt], for which the MIC turned out to be 0.2 µg/mL in the series on Streptococcus pneumoniae (setting [3]), 0.1 µg/mL in series [1] (setting [4]) and 0.05 µg/mL with Staphylococcus aureus (setting [5]).

Consider `C[C@@H](O)[C@H]1C(=O)N2C(C(=O)[O-])=C(SC3CN(c4nc(C(N)=O)co4)C3)[C@H](C)[C@H]12.[Na+]` [Example 22, (1R,5S,6S)-2-[1-(4-Carbamoyl-1,3-oxazol-2-yl)azetidin-3-yl]thio-6-[(R)-1-hydroxyethyl]-1-methylcarbapen-2-em-3-carboxylic acid sodium salt], for which the results for the MIC (in the series with Streptococcus pneumoniae (setting [3]); in series [1] (setting [4]); in the series with Staphylococcus aureus (setting [5])) were 0.2 µg/mL, 0.1 µg/mL and 0.05 µg/mL, respectively.

For the compound `C[C@@H](O)[C@H]1C(=O)N2C(C(=O)[O-])=C(SC3CN(c4nc(C(=O)N5CCC5)cs4)C3)[C@H](C)[C@H]12.[Na+]` [Example 24, (1R,5S,6S)-2-[1-(4-Azetidinocarbonyl-1,3-thiazol-2-yl)azetidin-3-yl]thio-6-[(R)-1-hydroxyethyl]-1-methylcarbapen-2-em-3-carboxylic acid sodium salt], the values for the MIC (in the series with Streptococcus pneumoniae (setting [3]); in series [1] (setting [4]); with Staphylococcus aureus (setting [5])) were 0.025 µg/mL, 0.05 µg/mL and at most 0.012 µg/mL, respectively.

In the case of `C[C@@H](O)[C@H]1C(=O)N2C(C(=O)[O-])=C(SC3CN(c4nc(C(=O)N5CCSCC5)cs4)C3)[C@H](C)[C@H]12.[Na+]` [Example 25, (1R,5S,6S)-2-[1-(4-Thiomorpholinocarbonyl-1,3-thiazol-2-yl)azetidin-3-yl]thio-6-[(R)-1-hydroxyethyl]-1-methylcarbapen-2-em-3-carboxylic acid sodium salt], the figures for the MIC (in the series on Streptococcus pneumoniae (setting [3]); in series [1] (setting [4]); in the series on Staphylococcus aureus (setting [5])) were 0.1 µg/mL, 0.39 µg/mL and 0.025 µg/mL, respectively.

Take `C[C@@H](O)[C@H]1C(=O)N2C(C(=O)O)=C(SC3CN(c4nc(C(=O)NC5CCNCC5)cs4)C3)[C@H](C)[C@H]12` [Example 56, (1R,5S,6S)-2-{1-[4-(piperidin-4-ylcarbamoyl)-1,3-thiazol-2-yl]azetidin-3-yl}thio-6-[(R)-1-hydroxyethyl]-1-methylcarbapen-2-em-3-carboxylic acid]: the MIC is 0.2 µg/mL (≈ 0.394 µM) in the series with Streptococcus pneumoniae (setting [3]), 0.2 µg/mL (≈ 0.394 µM) in series [1] (setting [4]) and 0.05 µg/mL (≈ 0.0985 µM) in the series with Staphylococcus aureus (setting [5]).

Consider `C[C@@H](O)[C@H]1C(=O)N2C(C(=O)O)=C(SC3CN(c4nc(CNC(=O)c5ccccc5)cs4)C3)[C@H](C)[C@H]12` [Example 69, (1R,5S,6S)-2-{1-[4-(benzoylaminomethyl)-1,3-thiazol-2-yl]azetidin-3-yl}thio-6-[(R)-1-hydroxyethyl]-1-methylcarbapen-2-em-3-carboxylic acid sodium salt], for which the values for the MIC (with Streptococcus pneumoniae (setting [3]); in series [1] (setting [4]); in the series with Staphylococcus aureus (setting [5])) were at most 0.012 µg/mL, 0.78 µg/mL and at most 0.012 µg/mL, respectively.

`C[C@@H](O)[C@H]1C(=O)N2C(C(=O)O)=C(SC3CN(c4nc(CNC(=O)c5cccs5)cs4)C3)[C@H](C)[C@H]12` [Example 71, (1R,5S,6S)-2-(1-{4-[(Thiophene-2-carbonylamino)methyl]-1,3-thiazol-2-yl}azetidin-3-yl)thio-6-[(R)-1-hydroxyethyl]-1-methylcarbapen-2-em-3-carboxylic acid sodium salt]: the MIC with Streptococcus pneumoniae (setting [3]) was at most 0.012 µg/mL; in series [1] (setting [4]), 0.39 µg/mL; in the series on Staphylococcus aureus (setting [5]) it was at most 0.012 µg/mL.

As for `C[C@@H](O)[C@H]1C(=O)N2C(C(=O)O)=C(SC3CN(c4nc(CNC(=O)c5ccco5)cs4)C3)[C@H](C)[C@H]12` [Example 72, (1R,5S,6S)-2-(1-{4-[(furan-2-carbonylamino)methyl]-1,3-thiazol-2-yl}azetidin-3-yl)thio-6-[(R)-1-hydroxyethyl]-1-methylcarbapen-2-em-3-carboxylic acid sodium salt], the results for the MIC (in the series with Streptococcus pneumoniae (setting [3]); in series [1] (setting [4]); in the series with Staphylococcus aureus (setting [5])) were 0.025 µg/mL, 0.2 µg/mL and at most 0.012 µg/mL, respectively.

Turning to `C[C@@H](O)[C@H]1C(=O)N2C(C(=O)O)=C(SC3CN(c4nc(C(=O)N[C@H]5CCNC5)co4)C3)[C@H](C)[C@H]12` [Example 80, (1R,5S,6S)-2-{1-[4-((3S)-pyrrolidin-3-ylcarbamoyl)-1,3-oxazol-2-yl]azetidin-3-yl}thio-6-[(R)-1-hydroxyethyl]-1-methylcarbapen-2-em-3-carboxylic acid], the values for the MIC (with Streptococcus pneumoniae (setting [3]); in series [1] (setting [4]); with Staphylococcus aureus (setting [5])) were 0.2 µg/mL (≈ 0.419 µM), 0.39 µg/mL (≈ 0.817 µM) and 0.025 µg/mL (≈ 0.0524 µM), respectively.

Regarding `C[C@@H](O)[C@H]1C(=O)N2C(C(=O)O)=C(SC3CN(c4nc(C(=O)N[C@@H]5CCNC5)co4)C3)[C@H](C)[C@H]12` [Example 81, (1R,5S,6S)-2-{1-[4-((3R)-pyrrolidin-3-ylcarbamoyl)-1,3-oxazol-2-yl]azetidin-3-yl}thio-6-[(R)-1-hydroxyethyl]-1-methylcarbapen-2-em-3-carboxylic acid], the values for the MIC (in the series on Streptococcus pneumoniae (setting [3]); in series [1] (setting [4]); in the series on Staphylococcus aureus (setting [5])) were 0.2 µg/mL (≈ 0.419 µM), 0.39 µg/mL (≈ 0.817 µM) and at most 0.012 µg/mL, respectively.
